What was measured:
Assay type in all cases: cell-based
Details in all cases: 18 hr at 30° C.
[1] = test system: various opportunistic bacterial pathogens; experiment: in vitro bacterial pathogen screen, zone of inhibition (DIFCO BACTROL Disk Set)
Excerpt: The ability of Bacillus coagulans to inhibit various opportunistic bacterial pathogens was quantitatively ascertained by use of an in vitro assay. This assay is part of a standardized bacterial pathogen screen (developed by the U.S. Food and Drug Administration (FDA)) and is commercially available on solid support disks (DIFCO® BACTROL® Disk Set). To perform the assay, potato-dextrose plates (DIFCO®) were initially prepared using standard procedures. The plates were then individually inoculated with each of the bacteria (approximately 1.5×10^6 CFU) to be tested, so as to form a confluent bacterial bed.
Inhibition by Bacillus coagulans was subsequently ascertained by placing approximately 1.5×10^6 CFU of Bacillus coagulans in 10 μl of broth or buffer, directly in the center of the potato-dextrose plate, with one test locus being approximately 8 mm in diameter per plate. A minimum of three test loci were used for each assay. The negative control consisted of a 10 μl volume of a sterile saline solution, whereas the positive control consisted of a 10 μl volume of glutaraldehyde. The plates were then incubated for approximately about 18 hr at 30° C., at which time the zones of inhibition were measured. […]

four species of Candida = experiment: in vitro zone of inhibition assay on potato-dextrose plates, Candida
Description: Each of the yeast pathogens and their ATCC accession numbers are illustrated in FIG. 4.
In the in vitro inhibition assay, potato-dextrose plates (DIFCO®, Detroit, Mich.) were prepared using standard procedures and were inoculated individually with a confluent bed about 1.7×10^6 of the four species of Candida. Inhibition by Bacillus coagulans was tested by placing on the plate about 1.5×10^6 colony forming units (CFU) in 10 μl of broth or buffer, plated directly in the center of the potato-dextrose plate with one test locus of about 8 mm in diameter per plate. A minimum of three tests were performed for each inhibition assay. The negative control consisted of a 10 μl volume of a sterile saline solution, whereas the positive control consisted of a 1 μl volume of Miconazole cream.
The plates were then incubated for approximately 18 hr at 30° C., at which time the zones of inhibition were measured. As designated herein, “excellent inhibition” means the zone was 10 mm or greater in diameter; and “good inhibition” means the zone was greater than 2 mm in diameter, but less than 10 mm in diameter.

[2] = test system: various species of the fungus Trichophyton; experiment: in vitro zone of inhibition assay on potato-dextrose plates, Trichophyton
Description: In the assay, potato-dextrose plates (DIFCO®, Detroit, Mich.) were prepared using standard procedures and were inoculated individually with a confluent bed (about 1.7×10^6) of various species of the fungus Trichophyton. The tested fungal strains of Trichophyton species (available from the American Type Culture Collection (ATCC; 10801 University Boulevard, Manassas, Va. 20110-2209)) and their ATCC accession numbers, as well as the results of in vitro inhibition by Bacillus coagulans are illustrated in FIG. 3.
Inhibition by Bacillus coagulans was ascertained by placing on the plate approximately 1.5×10^6 colony forming units (CFU) in 10 μl of broth or buffer, plated directly in the center of the potato-dextrose plate, with one test locus per plate. The size of each test locus was approximately 8 mm in diameter and a minimum of three tests were performed for each inhibition assay. The negative control consisted of a […] volume of sterile saline solution, whereas the positive control consisted of a […] volume 2% Miconazole (1-[2-(2,4-dichlorophenyl)-2-[(2,4-dichlorophenyl)methoxy]methyl-[…] within an inert cream.
The plates were then incubated for approximately 18 hr at 30° C., at which time the zones of inhibition were measured. […]

## O=CCCCC=O [glutaraldehyde]
[1]; 10 μl volume of glutaraldehyde, average of three tests
  zone of inhibition diameter: approximately 16.2 mm
[1]
  inhibition grade (zone of inhibition): excellent

## Clc1ccc(COC(Cn2ccnc2)c2ccc(Cl)cc2Cl)c(Cl)c1 (stereo not drawn) [positive control]
Four species of Candida; 1 μl volume of Miconazole cream, average of three tests
  zone of inhibition diameter: approximately 8.7 mm
Four species of Candida
  inhibition grade (zone of inhibition): good inhibition (the zone was greater than 2 mm in diameter, but less than 10 mm in diameter)
[2]; 10 ml volume 2% Miconazole in inert cream, mean average of three tests
  zone of inhibition diameter: approximately 8.5 mm
[2]
  inhibition grade (zone of inhibition): good inhibition (the zone was greater than 2 mm in diameter, but less than 10 mm in diameter)

— patent US7807185B2, “Methods of inhibiting growth of bacteria, yeast, fungus, and virus with Pseudomonas lindbergii and Bacillus coagulans extracellular products” (Ganeden Biotech, Incorporated, priority 1997, dated 2010)
